Source: patent US7524849B2, “5-arylpyrimidines as anticancer agents” (Wyeth Holdings Corporation, priority 2003, dated 2009)

Columns and labels:
MAP-rich tubulin = assay: Tubulin polymerization test with MAP-rich tubulin; assay type: biochemical, bovine; conditions: 0.3 μM compound, mean A340 at 20 min, fold enhancement over control
Experimental: Medium is RPMI-1640 with L-glutamine, supplemented with 10% heat-inactivated fetal calf serum, 100 units/mL penicillin, and 100 μg/mL streptomycin (Gibco, Grand Island, N.Y.). Microtubule-associated protein (MAP)-rich tubulin, containing about 70% tubulin and 30% MAPs (#ML113), and highly purified tubulin (>99% pure, #TL238), both from bovine brain, are obtained from Cytoskeleton, Inc., Denver, Colo. PEM buffer (80 mM piperazine-N,N′-bis[2-ethanesulfonic acid], pH 6.9, 1 mM ethylene glycol-bis(β-aminoethyl ether)-N,N,N′,N′-tetraacetic acid, 1 mM magnesium chloride) and guanosine 5′-triphosphate (GTP) are also obtained from Cytoskeleton. […] [^3H]vinblastine, specific activity 9.60 Ci/mmol and MicroSpin G-50 columns are obtained from Amersham Biosciences (Piscataway, N.J.). […] Other reagents are obtained from Sigma (St. Louis, Mo.).
MAP-rich tubulin is dissolved in ice-cold PEM buffer containing 1 mM GTP (GPEM buffer) at a concentration of 1.3 mg/mL. The solution is centrifuged at top speed in an Eppendorf model 5415C microcentrifuge (Brinkmann Instruments, Westbury, N.Y.) for 10 min at 4° immediately before use. The tubulin solution is added to wells of a ½-area 96-well plate (Costar No. 3696, Corning, Inc., Corning, N.Y.) already containing the compounds of interest. Each compound is tested in duplicate at a final concentration of 0.3 μM in a volume of 110 μL per well. The final DMSO concentration in all wells is 0.3%. Control reactions, which receive compound solvent only, are done in quadruplicate. The plate is put in a SpectraMax Plus plate reader (Molecular Devices Corp. Sunnyvale, Calif.) thermostated at 24° and the absorbance of each well at 340 nm, a measure of the appearance of turbidity due to tubulin polymer formation, is determined every minute for 60 minutes. The absorbance at time 0 for each well is subtracted from each of the subsequent absorbance readings for that well, and then the duplicates are averaged.

COLO 205 cells = assay: MTS cytotoxicity test with COLO 205 cells; assay type: cell-based, human; conditions: three days with compound
Procedure, shortened: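 COLO 205 human colon carcinoma cells, 1000/well, exposed for three days at 37 °C to nine 2-fold dilutions, top final concentration typically 5 μM. MTS formazan absorbance normalised to a time-0 plate; IC50 taken as concentration halfway between untreated maximum and high-drug minimum.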

Compound | A340 Compound / A340 Control (MAP-rich tubulin) | IC50 (COLO 205 cells; Homo sapiens, 72 h) [nM] | IC50 (COLO 205 cells) [nM]
CC(=O)O[C@H]1C(=O)[C@@]2(C)[C@H]([C@H](OC(=O)c3ccccc3)[C@]3(O)C[C@H](OC(=O)[C@H](O)[C@@H](NC(=O)c4ccccc4)c4ccccc4)C(C)=C1C3(C)C)[C@]1(OC(C)=O)CO[C@@H]1C[C@@H]2O [Paclitaxel, reference compound] | 2.4 | 3.3 | –
CNCCCOc1cc(F)c(-c2c(Cl)nc(-c3ccccn3)nc2N[C@@H](C)C(F)(F)F)c(F)c1.Cl [Example 29a, 6-Chloro-5-{2,6-difluoro-4-[3-(methylamino)propoxy]phenyl}-2-pyridin-2-yl-N-[(S)-2,2,2-trifluoro-1-methylethyl]pyrimidin-4-amine hydrogen chloride] | 2.4 | 5.2 | –
CC[C@]1(O)C[C@H]2CN(CCc3c([nH]c4ccccc34)[C@@](C(=O)OC)(c3cc4c(cc3OC)N(C=O)[C@H]3[C@@](O)(C(=O)OC)[C@H](OC(C)=O)[C@]5(CC)C=CCN6CC[C@]43[C@@H]65)C2)C1 [Vincristine, reference compound] | 0.2 | 2.6 | –
CNCCCOc1cc(F)c(-c2c(Cl)nc(-n3cccn3)nc2N[C@@H](C)C(F)(F)F)c(F)c1.Cl [Example 32a, 6-Chloro-5-{2,6-difluoro-4-[3-(methylamino)propoxy]phenyl}-2-(1H-pyrazol-1-yl)-N-[(1S)-2,2,2-trifluoro-1-methylethyl)pyrimidin-4-amine Hydrogen Chloride] | 2.3 | 2.4 | –
CNCCCOc1cc(F)c(-c2c(Cl)nc(-c3cnccn3)nc2N[C@@H](C)C(F)(F)F)c(F)c1.Cl [Example 24a, 6-Chloro-5-{2,6-difluoro-4-[3-(methylamino)propoxy]phenyl}-2-pyrazin-2-yl-N-[(1S)-2,2,2-trifluoro-1-methylethyl]pyrimidin-4-amine hygrogen chloride] | 2.3 | – | 8.9
